# Assay results: EP2620142A1, “Hedgehog signaling pathway involved in energy metabolism” (Max-Planck-Gesellschaft zur Förderung der Wissenschaften …, priority 2012, dated 2013)
# Experiments:
# 3T3-L1 adipocytes [1] = format: cell-based, Murine
# Protocol: Murine 3T3-L1 preadipocytes (ATCC) were maintained in DMEM containing 10% heat inactivated calf serum (CS) at 37°C and 5% CO2. Two days post-confluence, adipocyte differentiation was induced by treating cells with 0.25 mM 3-Isobutyl-1-methylxanthine (IBMX), 1 µM dexamethasone, 1.74 µM insulin and 5 µM Troglitazone in DMEM containing 10% fetal bovine serum (FBS). After 48 hours, the medium was replaced with DMEM supplemented with 10% FBS, insulin and Troglitazone alone. After an additional 48 hours, cells were switched to DMEM with 10% FBS for the rest of the differentiation process and the medium was changed every other day. Seven days post-induction, differentiated 3T3-L1 1 adipocytes were starved overnight in DMEM containing 1 % Bovine Serum Albumin (BSA) before starting different treatments as indicated in the text.
# Differentiated 3T3-L1 adipocytes were starved overnight in DMEM containing 1 % BSA and treated as indicated. NAD^+, NADP^+, NADH, and NADPH were determined using the Enzychrom NAD^+/NADH and the Enzychrom NADP^+/NADPH assay kit, respectively (BioAssay Systems) according to manufacturer's instructions. To measure glucose consumption and lactate production, the Glucose RTU and Lactate RTU kits (Biomerieux) were used according to manufacturer's instruction and normalized to cell number. AMP, ADP and ATP were determined as previously described^51. In brief, cells were washed once with ice cold PBS and proteins were precipitated with 1 % trichloroacetic acid (TCA). Repeated ether washes were used to remove TCA from the aqueous extract phase. Extracts were dried and stored at -80°C until further processing. To determine nucleotide phosphates by reversed-phase HPLC cell extracts were lyophilized for 3 days at -20 °C. Dried samples were dissolved in mobile phase A (60 mM K2HP04 and 40 mM KH2P04, adjusted to pH 7 with 0.1 M KOH). 20 µL were injected into an Agilent 1200 HPLC system (Agilent) and nucleotides were separated by gradient elution from an Agilent Eclipse XDB-C18 4.6 x 150 mm column at a flow rate of 1 mL/min. The gradient was 99% phase A from 0-5 minutes, 99% phase A to 40% A from 5-20 minutes and 99% phase A from 20-32.5 minutes. 100% acetonitrile served as mobile phase B. Eluting nucleotides were monitored on a UV detector at 254 nm. ATP, ADP and AMP standards were used to generate calibration curves for peak quantifications.
# AMPK = assay: AMPKAR FRET assay of AMPK activity; format: cell-based, Human; settings: cyclopamine, HEK293 with AMPK-AR reporter
# Protocol: HEK293 cells (ATCC) were grown in DMEM containing 10% FBS. 2 x 10^6 cells were seeded in 10 cm dishes and transfected using the GeneJuice Reagent (Merck) according to manufacturer's instructions. 48 hours after transfection, cells were resuspended in PBS and used for FRET assays.
# HEK293 cells transfected with the AMPK-AR construct^40 were resuspended in PBS at a concentration of 10^5 cells/ml. A Synergy 4 microplate reader (BioTeK) was used for measuring FRET signals. In brief, compounds were pipetted into a 96-well plate at the concentrations indicated in the text. Cell suspensions were pre-loaded in the reader to be injected at 10^4 cells/well. The FRET signal was detected using 420/50 nm and 528/20 nm as excitation and emission settings. Baseline values for each well were acquired before injection and subtracted afterwards.
# 3T3-L1 adipocytes [2] = assay: Calcium flux measurement (FluoForte); format: cell-based, Murine
# Protocol: 3T3-L1 cells were cultured and differentiated in black wall/clear bottom 96-well plates (Corning). At day seven post-induction, cells were starved overnight in DMEM containing 1 % BSA and loaded with the calcium dye FluoForte AM (Enzo Lifescience) according to the instructions provided by the manufacturer. Intracellular calcium levels were measured using a Synergy 4 microplate reader (BioTeK). […] Baselines for each well were acquired before injection and subtracted afterwards. Ionomycin and EGTA were injected in concentrations of 1 µM.
# C57BL/6J mice [3] = assay: Oral glucose tolerance test (OGTT); format: in vivo
# Protocol: (§1) C57BL/6J mice were maintained on a standard rodent chow diet and a 12 hour light: 12 hour dark cycle. Eight week old, over-night fasted C57BL/6J male mice were injected intraperitoneally (i.p.) with vehicle (45% hydroxypropyl-β-cyclodextrin; HBS) or cyclopamine (10 mg/kg). Fifteen minutes after injection, an oral glucose tolerance test (OGTT) was performed by administering 2 g/kg glucose by oral gavage. Tail-vein blood was collected to measure glucose and insulin levels. Insulin was measured using the ultrasensitive insulin ELISA Kit from Mercodia, according to the manufacturer's recommendations. For cyclopamine tolerance tests eight week old C57BL/6J mice were i.p. injected with streptozotocin (STZ, 200 mg/kg body weight) to destroy pancreatic beta-cells. 72 hours later STZ-treated mice were separated into two groups and injected i.p. with either vehicle or 10 mg/kg cyclopamine. All animal experiments were carried out according to an ethical animal license protocol in accordance to the animal protection law and approved by the Regierungspräsidium Freiburg (Tierversuchsvorhaben Registrier-Nr.: G-10/94).
# C57BL/6J mice [4] = assay: Glycemic-insulinemic clamp with somatostatin infusion; format: in vivo
# Protocol: Indwelling catheters were placed into the left femoral vein and externalised in the interscapular region of 11 week old C57BL/6J mice^17,52. The animals were allowed to recover for 5 days and fasted for 16 hours before the experiment. Somatostatin (SST14 Bachem, Switzerland) was infused at a rate of 1 µg/kg/min and hyperglycemia (12.5 mM) was maintained by variable infusion of 10% glucose. Steady state was maintained for 90 min before cyclopamine injection (2/3 bolus 1/3 infusion; low dose = 1 mg/kg, high-dose = 10 mg/kg), or HBS (Control). Whole blood was sampled from the tail every 10 min during the last hour using a glucometer (AccuCheck Aviva; Roche Diagnostics, Meylan, France).
# [5] = tested on: STZ-treated C57BL/6J mice; assay: Cyclopamine tolerance test in STZ-treated mice; format: in vivo
# Protocol: as §1
# Smoothened = settings: cyclopamine 100 nM against standard 200 nM SAG; cited from earlier work
compound,measurement,setting,value
c1cc(-c2cnn3cc(-c4ccc(OCCN5CCCCC5)cc4)cnc23)ccn1 [compound C],"effect on SAG-induced metabolic rewiring (glucose uptake, lactate production, redox balance)","3T3-L1 adipocytes [1]; SAG 200 nM, compound C 10 µM, nifedipine 20 µM, Ptx 100 ng/ml",abrogated all detectable metabolic rewiring effects following SAG stimulation
same,"effect on cyclopamine-dependent glucose uptake, lactate production and redox rebalancing","3T3-L1 adipocytes [1]; cyclopamine 100 nM, compound C 10 µM, nifedipine 20 µM, Ptx 100 ng/ml",efficiently counteracted
"CC1=C2C[C@H]3[C@@H](CC=C4C[C@@H](O)CC[C@@]43C)[C@@H]2CC[C@]12O[C@@H]1C[C@H](C)CN[C@H]1[C@H]2C [cyclopamine, 11-deoxojervine]",NAD+/NADH ratio,3T3-L1 adipocytes [1]; cyclopamine 100 nM,augmentation of the NAD^+/NADH ratio
same,generation of lactate,3T3-L1 adipocytes [1]; cyclopamine 100 nM,generation of lactate
same,glucose uptake,3T3-L1 adipocytes [1]; cyclopamine 100 nM,marked glucose uptake
same,Ampk sensitive FRET signal,AMPK,significant Ampk sensitive FRET signal
same,Ca++ response,3T3-L1 adipocytes [2]; cyclopamine,rapid and robust Ca^++ response
same,glucose tolerance,"C57BL/6J mice [3]; 10 mg/kg i.p. 15 minutes prior to testing, 2 g/kg oral glucose",moderate but significant improvement in glucose tolerance
same,basal and glucose-stimulated insulin secretion,C57BL/6J mice [3]; 10 mg/kg i.p. pre-treatment,Neither basal nor glucose-stimulated insulin secretion appeared affected
same,tissue-specific glucose uptake (glucose tracing),"C57BL/6J mice [4]; LD 1 mg/kg, HD 10 mg/kg, EDL, Soleus, VL",increased glucose-uptake into muscle
same,time to increase in glucose infusion rate,C57BL/6J mice [4]; after cyclopamine infusion,10 to 20 min
same,glucose infusion rate,"C57BL/6J mice [4]; low dose 1 mg/kg, high dose 10 mg/kg, somatostatin infusion",robust dose-dependent increases in glucose infusion rate
same,glucose clearance,"[5]; 10 mg/kg i.p., insulin-deficient mice",significant and robust glucose clearance
same,time to glucose clearance,"[5]; after cyclopamine injection, 10 mg/kg",~30 min
same,displacing SAG and blocking canonical signalling,Smoothened,incapable of displacing standard 200 nM SAG and blocking canonical signalling
O=C(O)CN(CCOCCOCCN(CC(=O)O)CC(=O)O)CC(=O)O [EGTA],effect on cyclopamine-induced Ca++ response,3T3-L1 adipocytes [2]; EGTA 1 µM,sensitive to extracellular EGTA
same,effect on SAG- and Shh-induced Ca++ responses,"3T3-L1 adipocytes [2]; EGTA 1 µM, extracellular calcium chelator",completely abrogated the SAG-and Shh-induced responses
